A word on the IC50: it is the concentration at which inhibition is half-maximal.

Results on 19 molecules are retold here after patent US20180273528A1 (LES LABORATOIRES SERVIER, priority 2015, published 2018).

Experiment [1] addresses T1, His-TEV-DYRK1A Kinase domain (aa127-485) (Homo sapiens, UniProt Q13627).
T1 construct: His-TEV-DYRK1A Kinase domain (aa127-485); His tag (N); TEV protease cleavage site (N)
The experiment in a line: Kinase ADP assay (ADP Hunter), DYRK1A kinase domain. As to conditions: 20 μM ATP. In kind it is biochemical. The method in brief: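 Readout is ADP Hunter fluorescence at 590 nm, developed 20 min at 30 °C after the kinase step. That step ran 10 min at 30 °C in Hepes pH 7.4 (10 mM MgCl2, 1 mM EGTA, 0.02% Tween20) containing 20 μM ATP, 40 μM peptide and 20 nM enzyme plus compound.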

For experiment [2], the target named is T2, DYRK1A (Homo sapiens, UniProt Q13627). The experiment in a line: Cellular DYRK1 autophosphorylation assay in U2-OS cells. In kind it is cell-based. Further details: full-length, wild-type human DYRK1A (NM_001396) with an HA tag; expressed in transfected cells; host or cells: human U2-OS osteosarcoma cells, transient transfection of a pcDNA3.1 plasmid. The following applies: U2-OS cells transfected with HA-tagged human DYRK1A, 5 hours exposure; read-out: IC50 (μM) P-Ser520-Dyrk1A -Cell assay. The method in brief: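 IC50 derived from dose-response curves of phospho-Ser520-DYRK1A (blots normalised to total DYRK1A), quantified by either immunoblotting with chemiluminescence or Mesoscale electrochemiluminescent ELISA. Compounds applied to U2-OS cells across several concentrations for 5 hours.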

In experiment [3] the target is T2, DYRK1A. The experiment in a line: Kinase TR-FRET assay, DYRK1A. In kind it is biochemical. Further details: full-length, wild-type human DYRK1A (NM_001396) with an HA tag; expressed in transfected cells; host or cells: human U2-OS osteosarcoma cells, transient transfection of a pcDNA3.1 plasmid. The following applies: full-length human kinase, 10 μM ATP. The method in brief: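 Compounds tested at 0.1 nM to 30 μM in reaction buffer; reaction stopped with 10 mM EDTA. Phosphorylated MBP detected with 1 nM Europium-labelled anti-phospho-Thr232 antibody by TR-FRET.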
On the technique in general: TR-FRET usually uses a lanthanide donor and a delayed reading to cut background.

Experiment [4] deals with T3, CDK9 (Homo sapiens, UniProt P50750).
T3 construct: full-length human kinases from Carna Biosciences; purchased Carna Biosciences 04-110
Description: Kinase TR-FRET assay, CDK9. The class given is biochemical. As to conditions: full-length human kinase, 10 μM ATP. Here is the method: Inhibition of the enzymatic activity of human kinases was evaluated in a Time-Resolved Fluorescence Resonance Energy Transfer (TR-FRET) assay in 384-well reaction plates. In this assay, full-length human kinases from Carna Biosciences—DYRK1A (NM_001396, ref. 04-130; 2.0 ng/μl), DYRK1B (NM_004714, ref. 04-131; 1.2 ng/p), CLK1 (NM_001162407, ref. 04-126; 0.7 ng/μl), CDK9 (NM_001261, ref. 04-110; 0.9 ng/μl), or GSK3β (NM_001146156, ref. 04-141; 2.0 ng/μl—were incubated for 40 minutes (DYRK1A and DYRK1B) or 100 minutes (CLK1, CDK9 and GSK3β) at room temperature with ATP (Sigma A2383, 10 μM) and a ULight™-labelled human Myelin Basic Protein (MBP) peptide substrate (Perkin Elmer TRF0109, 100 nM) in a reaction buffer composed of 50 mM HEPES pH7.4, 1 mM EGTA, 10 mM MgCl2, 2 mM DTT and 0.01% Tween20. Test compounds of the invention were added in reaction buffer at a range of concentrations from 0.1 nM to 30 μM. Following addition of EDTA (Sigma E7889, 10 mM) to stop the reaction, Europium-labelled mouse monoclonal antibody recognizing phospho-Thr232 in MBP (Perkin Elmer TRF0201, 1 nM) was added. After one hour, the reaction plates were read using a fluorescence reader (EnVision®, Perkin Elmer) at 620 nm and 665 nm (excitation at 340 nm); when the Europium donor fluorophore is excited by light at 340 nm, an energy transfer (620 nm) to the acceptor occurs, which will then emit light at 665 nm.

Experiment [5] addresses T4, DYRK1B (Homo sapiens, UniProt Q9Y463).
T4 construct: full-length human kinases from Carna Biosciences; purchased Carna Biosciences 04-131
The experiment in a line: Kinase TR-FRET assay, DYRK1B. The class given is biochemical. As to conditions: full-length human kinase, 10 μM ATP. Here is the method:
Inhibition of the enzymatic activity of human kinases was evaluated in a Time-Resolved Fluorescence Resonance Energy Transfer (TR-FRET) assay in 384-well reaction plates. […] Test compounds of the invention were added in reaction buffer at a range of concentrations from 0.1 nM to 30 μM. Following addition of EDTA (Sigma E7889, 10 mM) to stop the reaction, Europium-labelled mouse monoclonal antibody recognizing phospho-Thr232 in MBP (Perkin Elmer TRF0201, 1 nM) was added.

SMILES strings stand for the structures.

T4 sequence (Q9Y463 whole entry): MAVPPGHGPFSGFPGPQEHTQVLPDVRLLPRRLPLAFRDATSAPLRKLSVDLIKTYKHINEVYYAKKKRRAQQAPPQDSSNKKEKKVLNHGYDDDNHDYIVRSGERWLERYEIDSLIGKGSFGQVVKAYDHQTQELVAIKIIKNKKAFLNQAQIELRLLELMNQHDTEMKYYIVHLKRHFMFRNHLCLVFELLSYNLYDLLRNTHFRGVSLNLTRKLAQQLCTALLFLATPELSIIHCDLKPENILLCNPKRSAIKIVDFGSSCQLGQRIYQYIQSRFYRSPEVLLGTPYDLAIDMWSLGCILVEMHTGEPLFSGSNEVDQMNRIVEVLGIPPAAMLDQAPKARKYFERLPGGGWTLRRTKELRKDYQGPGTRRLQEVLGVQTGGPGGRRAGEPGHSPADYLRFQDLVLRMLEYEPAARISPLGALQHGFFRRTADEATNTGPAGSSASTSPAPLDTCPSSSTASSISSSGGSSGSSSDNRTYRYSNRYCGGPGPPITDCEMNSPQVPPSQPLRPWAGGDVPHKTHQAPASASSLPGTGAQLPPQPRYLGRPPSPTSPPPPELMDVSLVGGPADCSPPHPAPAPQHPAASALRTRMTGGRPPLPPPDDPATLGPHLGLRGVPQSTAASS
T3 sequence (P50750 whole entry): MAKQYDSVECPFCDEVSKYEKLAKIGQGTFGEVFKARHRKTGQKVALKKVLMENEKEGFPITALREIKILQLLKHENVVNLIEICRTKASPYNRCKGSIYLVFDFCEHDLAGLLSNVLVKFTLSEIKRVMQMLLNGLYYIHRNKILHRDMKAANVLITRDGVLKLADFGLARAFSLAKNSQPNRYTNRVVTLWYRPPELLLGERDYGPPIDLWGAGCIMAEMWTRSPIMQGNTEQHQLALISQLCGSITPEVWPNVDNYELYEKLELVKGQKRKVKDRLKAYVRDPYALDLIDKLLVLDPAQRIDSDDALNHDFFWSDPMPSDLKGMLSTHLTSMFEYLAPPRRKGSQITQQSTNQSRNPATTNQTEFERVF
T3 sequence (O60563 whole entry partner): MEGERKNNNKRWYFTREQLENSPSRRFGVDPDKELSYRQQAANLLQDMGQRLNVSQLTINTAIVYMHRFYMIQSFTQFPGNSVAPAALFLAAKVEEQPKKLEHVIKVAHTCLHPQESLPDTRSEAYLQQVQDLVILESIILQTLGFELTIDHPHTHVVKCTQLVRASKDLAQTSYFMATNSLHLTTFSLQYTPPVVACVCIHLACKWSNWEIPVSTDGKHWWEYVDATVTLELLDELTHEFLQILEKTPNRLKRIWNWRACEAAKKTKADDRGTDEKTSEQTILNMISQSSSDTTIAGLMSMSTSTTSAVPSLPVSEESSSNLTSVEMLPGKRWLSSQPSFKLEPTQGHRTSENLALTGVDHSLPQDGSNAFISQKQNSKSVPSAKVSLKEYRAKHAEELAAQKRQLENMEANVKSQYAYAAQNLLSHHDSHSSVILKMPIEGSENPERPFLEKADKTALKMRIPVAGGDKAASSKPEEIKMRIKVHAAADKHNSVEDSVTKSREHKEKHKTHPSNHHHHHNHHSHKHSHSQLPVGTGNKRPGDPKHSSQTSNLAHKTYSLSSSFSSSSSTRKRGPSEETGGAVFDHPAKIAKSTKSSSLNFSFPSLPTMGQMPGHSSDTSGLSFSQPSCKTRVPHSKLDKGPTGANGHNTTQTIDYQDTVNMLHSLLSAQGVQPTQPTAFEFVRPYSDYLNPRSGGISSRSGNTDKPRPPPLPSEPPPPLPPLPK

In the case of `Cc1nc2ccc(-c3cc(N)nc(N)c3)nc2n1CCO` [Example 3, 2-[5-(2,6-diaminopyridin-4-yl)-2-methyl-3H-imidazo[4,5-b]pyridin-3-yl]ethanol], the IC50 in experiment [1] turned out to be 0.02 µM; in experiment [2] it was 0.23 µM; in experiment [3], 0.02 µM; in experiment [4] it was 2.57 µM.
On to `Cc1nc2ccc(-c3cc(N)nc(N)c3)nc2n1C` [Example 4, 4-(2,3-dimethyl-3H-imidazo[4,5-b]pyridin-5-yl)pyridine-2,6-diamine], for which the 50% inhibitory concentration (IC50) is 0.011 µM in experiment [1], 0.25 µM in experiment [2], 0.015 µM in experiment [3] and 1.26 µM in experiment [4].
As to `Cc1nc2ccc(-c3cc(N)nc(N)c3)nc2n1Cc1ccncc1` [Example 5, 4-[2-methyl-3-(pyridin-4-ylmethyl)-3H-imidazo[4,5-b]pyridin-5-yl]pyridine-2,6-diamine], the IC50 in experiment [1] stood at 0.02 µM; in experiment [2], 1 µM; in experiment [3] it was 0.006 µM; in experiment [4], 6.56 µM.
With `Cc1nc2ccc(-c3cc(N)nc(N)c3)nc2n1Cc1ccccn1` [Example 6, 4-[2-methyl-3-(pyridin-2-ylmethyl)-3H-imidazo[4,5-b]pyridin-5-yl]pyridine-2,6-diamine], the concentration for half-maximal inhibition (IC50) in experiment [1] was 0.493 µM; in experiment [3], 0.155 µM; in experiment [4], 1.09 µM; in experiment [5] it was 0.149 µM.
Consider `Cc1nc2ccc(-c3cc(N)nc(N)c3)nc2n1Cc1ccc(F)cc1` [Example 10, 4-[3-(4-fluorobenzyl)-2-methyl-3H-imidazo[4,5-b]pyridin-5-yl]pyridine-2,6-diamine], for which the IC50 is 0.079 µM in experiment [1], 0.032 µM in experiment [3], 4.58 µM in experiment [4] and 0.055 µM in experiment [5].
`Cc1nc2ccc(-c3cc(N)nc(N)c3)nc2n1CC1CC1` [Example 11, 4-[3-(cyclopropylmethyl)-2-methyl-3H-imidazo[4,5-b]pyridin-5-yl]pyridine-2,6-diamine]: the IC50 in experiment [1] turned out to be 0.011 µM; in experiment [2], 0.17 µM; in experiment [3] it was 0.004 µM; in experiment [4] it was 3.45 µM.
For the molecule `Cc1nc2ccc(-c3cc(N)nc(N)c3)nc2n1CCCN1CCCC1=O` [Example 13, 1-{3-[5-(2,6-diaminopyridin-4-yl)-2-methyl-3H-imidazo[4,5-b]pyridin-3-yl]propyl}pyrrolidin-2-one], the concentration for half-maximal inhibition (IC50) in experiment [1] is 0.035 µM; in experiment [3], 0.012 µM; in experiment [4], above 10 µM; in experiment [5], 0.019 µM.
Regarding `Cc1nc2ccc(-c3cc(N)nc(N)c3)nc2n1Cc1cccs1` [Example 20, 4-[2-methyl-3-(thiophen-2-ylmethyl)-3H-imidazo[4,5-b]pyridin-5-yl]pyridine-2,6-diamine], the IC50 in experiment [1] was found to be 0.032 µM; in experiment [3], 0.016 µM; in experiment [4], 2.92 µM; in experiment [5] it was 0.016 µM.
Turning to `CC(=O)Nc1ccc(CCn2c(C)nc3ccc(-c4cc(N)nc(N)c4)nc32)cc1` [Example 24, N-(4-{2-[5-(2,6-diaminopyridin-4-yl)-2-methyl-3H-imidazo[4,5-b]pyridin-3-yl]ethyl}phenyl)acetamide], the IC50 in experiment [1] is 0.008 µM; in experiment [3], 0.005 µM; in experiment [4], 3.53 µM; in experiment [5], 0.015 µM.
Turning to `Cc1nc2ccc(-c3cc(N)nc(N)c3)nc2n1CCc1cccs1` [Example 26, 4-{2-methyl-3-[2-(thiophen-2-yl)ethyl]-3H-imidazo[4,5-b]pyridin-5-yl}pyridine-2,6-diamine], the IC50 in experiment [1] was 0.007 µM; in experiment [3], 0.004 µM; in experiment [4], 1.82 µM; in experiment [5], 0.006 µM.
Take `Cc1nc2ccc(-c3cc(N)nc(N)c3)nc2n1CCOc1cccc2ccccc12` [Example 27, 4-{2-methyl-3-[2-(naphthalen-1-yloxy)ethyl]-3H-imidazo[4,5-b]pyridin-5-yl}pyridine-2,6-diamine]: the IC50 was 0.056 µM in experiment [1], 0.015 µM in experiment [3], above 10 µM in experiment [4] and 0.005 µM in experiment [5].
For `Cc1nc2ccc(-c3cc(N)nc(N)c3)nc2n1CC(C)(C)C` [Example 30, 4-[3-(2,2-dimethylpropyl)-2-methyl-3H-imidazo[4,5-b]pyridin-5-yl]pyridine-2,6-diamine], in that order: 0.018 µM, 0.017 µM, 3.57 µM and 0.125 µM.
For `CCC(C)Cn1c(C)nc2ccc(-c3cc(N)nc(N)c3)nc21` (stereo not drawn) [Example 34, 4-[2-methyl-3-(2-methylbutyl)-3H-imidazo[4,5-b]pyridin-5-yl]pyridine-2,6-diamine], in that order: 0.01 µM, 0.03 µM, 1.4 µM and 0.015 µM.
As to `Cc1nc2ccc(-c3cc(N)nc(N)c3)nc2n1Cc1ccccc1Cl` [Example 47, 4-[3-(2-chlorobenzyl)-2-methyl-3H-imidazo[4,5-b]pyridin-5-y]pyridine-2,6-diamine], the IC50 is 0.025 µM in experiment [1], 0.003 µM in experiment [3], 0.728 µM in experiment [4] and 0.046 µM in experiment [5].
With `Cc1nc2ccc(-c3cc(N)nc(N)c3)nc2n1C12CC3CC(CC(C3)C1)C2` [Example 56, 4-{2-methyl-3-tricyclo[3.3.1.1^3,7]dec-1-yl-3H-imidazo[4,5-b]pyridin-5-yl}pyridine-2,6-diamine], the results for the half-maximal inhibitory concentration (IC50) in experiment [1], in experiment [3] and in experiment [4] were 0.015 µM, 0.009 µM and 0.357 µM, respectively.
For the molecule `Cc1nc2ccc(-c3cc(N)nc(N)c3)nc2n1Cc1cc(Cl)ccc1Cl` [Example 57, 4-[3-(2,5-dichlorobenzyl)-2-methyl-3H-imidazo[4,5-b]pyridin-5-yl]pyridine-2,6-diamine], the concentration for half-maximal inhibition (IC50) in experiment [1] was 0.085 µM; in experiment [3] it was 0.026 µM; in experiment [4] it was above 10 µM; in experiment [5] it was 0.005 µM.
With `Cc1nc2ccc(-c3cc(N)nc(N)c3)nc2n1CCc1ccc(Cl)cc1Cl` [Example 59, 4-{3-[2-(2,4-dichlorophenyl)ethyl]-2-methyl-3H-imidazo[4,5-b]pyridin-5-yl}pyridine-2,6-diamine], the IC50 in experiment [1] was 0.021 µM; in experiment [3] it was 0.002 µM; in experiment [4] it was above 10 µM; in experiment [5], 0.003 µM.
Regarding `CCCC(C)n1c(C)nc2ccc(-c3cc(N)nc(N)c3)nc21` (stereo not drawn) [Example 64, 4-[2-methyl-3-(pentan-2-yl)-3H-imidazo[4,5-b]pyridin-5-yl]pyridine-2,6-diamine], the IC50 in experiment [1] is 0.026 µM; in experiment [3], 0.009 µM; in experiment [4], above 10 µM; in experiment [5] it was 0.03 µM.
With `CCC(CC)n1c(C)nc2ccc(-c3cc(N)nc(N)c3)nc21` [Example 68, 4-[2-methyl-3-(pentan-3-yl)-3H-imidazo[4,5-b]pyridin-5-yl]pyridine-2,6-diamine], the half-maximal inhibitory concentration (IC50) in experiment [1] was 0.193 µM; in experiment [3], 0.029 µM; in experiment [4], above 10 µM; in experiment [5] it was 0.132 µM.
